Test results published in PubChem BioAssay AID256 (DTP/NCI, 2004).
Inconclusive results and toxic doses are left out.

System: CD2F1 mice, L1210 leukemia ip, survival T/C
Test: NCI In Vivo Anticancer Drug Screen. Data for tumor model L1210 Leukemia (intraperitoneal) in CD2F1 (CDF1) mice
Conditions: higher = longer survival
Outline: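 Read-out first: treated-group measurement over vehicle-control measurement, expressed as a ratio. Animals bore a transplanted tumor line and were dosed with compound or vehicle.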

[1] = endpoint: mean survival time, dose: 100.0 mg/kg/injection, schedule: Q01DX009 (ip), vehicle: saline with Tween-80
[2] = endpoint: mean survival time, dose: 200.0 mg/kg/injection, schedule: Q01DX009 (ip), vehicle: saline with Tween-80
[3] = endpoint: mean survival time, dose: 400.0 mg/kg/injection, schedule: Q01DX009 (ip), vehicle: saline with Tween-80
[4] = endpoint: mean survival time, dose: 100.0 mg/kg/injection, schedule: Q04DX002 (ip), vehicle: saline with Tween-80
[5] = endpoint: mean survival time, dose: 200.0 mg/kg/injection, schedule: Q04DX002 (ip), vehicle: saline with Tween-80
[6] = endpoint: mean survival time, dose: 400.0 mg/kg/injection, schedule: Q04DX002 (ip), vehicle: saline with Tween-80
[7] = endpoint: mean survival time, dose: 100.0 mg/kg/injection, schedule: Q01DX001 (ip), vehicle: saline with Tween-80
[8] = endpoint: mean survival time, dose: 200.0 mg/kg/injection, schedule: Q01DX001 (ip), vehicle: saline with Tween-80
[9] = endpoint: mean survival time, dose: 400.0 mg/kg/injection, schedule: Q01DX001 (ip), vehicle: saline with Tween-80
[10] = endpoint: mean survival time, dose: 100.0 mg/kg/injection, schedule: Q04DX003 (ip), vehicle: saline with Tween-80
[11] = endpoint: mean survival time, dose: 200.0 mg/kg/injection, schedule: Q04DX003 (ip), vehicle: saline with Tween-80
[12] = endpoint: mean survival time, dose: 400.0 mg/kg/injection, schedule: Q04DX003 (ip), vehicle: saline with Tween-80

CC(=O)Oc1ccc(/C=C2\CCOC2=O)cc1
T/C (endpoint: mean survival time, dose: 7.82 mg/kg/injection, schedule: Q01DX005 (ip), vehicle: Klucel (hydroxypropylcellulose) (HPC)): 112 % of control | T/C (endpoint: mean survival time, dose: 15.63 mg/kg/injection, schedule: Q01DX005 (ip), vehicle: Klucel (hydroxypropylcellulose) (HPC)): 101 % of control | T/C (endpoint: mean survival time, dose: 31.25 mg/kg/injection, schedule: Q01DX005 (ip), vehicle: Klucel (hydroxypropylcellulose) (HPC)): 106 % of control | T/C (endpoint: mean survival time, dose: 62.5 mg/kg/injection, schedule: Q01DX005 (ip), vehicle: Klucel (hydroxypropylcellulose) (HPC)): 107 % of control | T/C (endpoint: mean survival time, dose: 125.0 mg/kg/injection, schedule: Q01DX005 (ip), vehicle: Klucel (hydroxypropylcellulose) (HPC)): 109 % of control | T/C (endpoint: mean survival time, dose: 250.0 mg/kg/injection, schedule: Q01DX005 (ip), vehicle: Klucel (hydroxypropylcellulose) (HPC)): 109 % of control

CCc1nc(N)nc(N)c1-c1ccc(Cl)c([N+](=O)[O-])c1
T/C (endpoint: mean survival time, dose: 3.12 mg/kg/injection, schedule: Q01DX009 (ip), vehicle: saline with Tween-80): 101 % of control | T/C (endpoint: mean survival time, dose: 6.25 mg/kg/injection, schedule: Q01DX009 (ip), vehicle: saline with Tween-80): 106 % of control

Cc1cc(O)c(N=Nc2cccc(C(=O)O)c2)cc1C
T/C (endpoint: mean survival time, dose: 50.0 mg/kg/injection, schedule: Q01DX009 (ip), vehicle: saline): 107 % of control | T/C (endpoint: mean survival time, dose: 100.0 mg/kg/injection, schedule: Q01DX009 (ip), vehicle: saline): 96 % of control | T/C (endpoint: mean survival time, dose: 200.0 mg/kg/injection, schedule: Q01DX009 (ip), vehicle: saline): 103 % of control

CN(C)C(Cl)(Cl)Nc1ccc(Cl)cc1
T/C [1]: 91 % of control | T/C [2]: 107 % of control | T/C [3]: 113 % of control

O=C1CC2/C(=[N+](/[O-])O)C=C([N+](=O)[O-])C(C1C(=O)Nc1ccccc1)C2[N+](=O)[O-] (stereo not drawn)
T/C [4]: 110 % of control | T/C [5]: 98 % of control | T/C [6]: 110 % of control

CC(=O)OCC(OC(C)=O)C(OC(C)=O)C(/C=N\Nc1ccccc1)=N/Nc1ccccc1 (stereo not drawn)
T/C (endpoint: mean survival time, dose: 37.5 mg/kg/injection, schedule: Q01DX001 (ip), vehicle: saline with Tween-80): 92 % of control | T/C (endpoint: mean survival time, dose: 75.0 mg/kg/injection, schedule: Q01DX001 (ip), vehicle: saline with Tween-80): 96 % of control | T/C (endpoint: mean survival time, dose: 150.0 mg/kg/injection, schedule: Q01DX001 (ip), vehicle: saline with Tween-80): 91 % of control

Nc1cc(Cl)cc2c1-c1ccc(Cl)cc1C2Br (stereo not drawn)
T/C (endpoint: mean survival time, dose: 50.0 mg/kg/injection, schedule: Q01DX001 (ip), vehicle: carboxymethylcellulose (CMC)): 102 % of control | T/C (endpoint: mean survival time, dose: 100.0 mg/kg/injection, schedule: Q01DX001 (ip), vehicle: carboxymethylcellulose (CMC)): 108 % of control | T/C (endpoint: mean survival time, dose: 200.0 mg/kg/injection, schedule: Q01DX001 (ip), vehicle: carboxymethylcellulose (CMC)): 108 % of control | T/C (endpoint: mean survival time, dose: 400.0 mg/kg/injection, schedule: Q01DX001 (ip), vehicle: carboxymethylcellulose (CMC)): 108 % of control

CC(C)(C)OC(=O)Cc1ccccc1
T/C [7]: 91 % of control | T/C [8]: 97 % of control | T/C [9]: 94 % of control

O=C(Nc1ccccc1[N+](=O)[O-])OCc1ccccc1
T/C [4]: 95 % of control | T/C [5]: 91 % of control | T/C [6]: 91 % of control

O=c1[nH]cc(N=Cc2ccccc2F)c(=O)[nH]1.[Cl][Pt][Cl]
T/C (endpoint: mean survival time, dose: 3.13 mg/kg/injection, schedule: Q04DX003 (ip), vehicle: water): 97 % of control | T/C (endpoint: mean survival time, dose: 6.25 mg/kg/injection, schedule: Q04DX003 (ip), vehicle: water): 96 % of control | T/C (endpoint: mean survival time, dose: 12.5 mg/kg/injection, schedule: Q04DX003 (ip), vehicle: water): 97 % of control | T/C (endpoint: mean survival time, dose: 25.0 mg/kg/injection, schedule: Q04DX003 (ip), vehicle: water): 100 % of control | T/C (endpoint: mean survival time, dose: 50.0 mg/kg/injection, schedule: Q04DX003 (ip), vehicle: water): 97 % of control | T/C (endpoint: mean survival time, dose: 100.0 mg/kg/injection, schedule: Q04DX003 (ip), vehicle: water): 91 % of control | T/C (endpoint: mean survival time, dose: 200.0 mg/kg/injection, schedule: Q04DX003 (ip), vehicle: water): 100 % of control

CC1Cc2c(N)cccc2C1=O (stereo not drawn)
T/C [7]: 98 % of control | T/C [8]: 87 % of control | T/C [9]: 91 % of control

CCC(=O)OCCNc1ccc([N+](=O)[O-])cc1[N+](=O)[O-]
T/C (endpoint: mean survival time, dose: 100.0 mg/kg/injection, schedule: Q04DX002 (ip), vehicle: other): 106 % of control | T/C (endpoint: mean survival time, dose: 200.0 mg/kg/injection, schedule: Q04DX002 (ip), vehicle: other): 109 % of control | T/C (endpoint: mean survival time, dose: 400.0 mg/kg/injection, schedule: Q04DX002 (ip), vehicle: other): 91 % of control

NC(=O)Nc1n[nH]c(-c2ccccc2)n1
T/C [10]: 93 % of control | T/C [11]: 91 % of control | T/C [12]: 91 % of control

Cc1ccc2nc(-c3ccc(NC(=O)Nc4cccc(F)c4)cc3)sc2c1
T/C (endpoint: mean survival time, dose: 50.0 mg/kg/injection, schedule: Q01DX009 (ip), vehicle: saline with Tween-80): 97 % of control | T/C [1]: 97 % of control

CS(=O)(=O)OCC(OS(C)(=O)=O)C(OS(C)(=O)=O)C(OS(C)(=O)=O)C(COS(C)(=O)=O)OS(C)(=O)=O (stereo not drawn)
T/C (endpoint: mean survival time, dose: 12.5 mg/kg/injection, schedule: Q01DX009 (ip), vehicle: Klucel (hydroxypropylcellulose) (HPC)): 101 % of control | T/C (endpoint: mean survival time, dose: 25.0 mg/kg/injection, schedule: Q01DX009 (ip), vehicle: Klucel (hydroxypropylcellulose) (HPC)): 104 % of control | T/C (endpoint: mean survival time, dose: 50.0 mg/kg/injection, schedule: Q01DX009 (ip), vehicle: Klucel (hydroxypropylcellulose) (HPC)): 101 % of control

COc1c(Cl)c(=O)oc2ccc(Cl)cc12
T/C [7]: 93 % of control | T/C [8]: 90 % of control | T/C [9]: 88 % of control

CC(C)COC(=N)c1ccccc1C1(O)CCCCC1
T/C (endpoint: mean survival time, dose: 50.0 mg/kg/injection, schedule: Q04DX002 (ip), vehicle: saline with Tween-80): 91 % of control | T/C [4]: 88 % of control | T/C [10]: 98 % of control | T/C [5]: 100 % of control | T/C [11]: 92 % of control

O=C(N/N=C/c1ccc2c(c1)CCC2)c1ccncc1
T/C [10]: 98 % of control | T/C [11]: 96 % of control | T/C [12]: 98 % of control

Nc1cccc[n+]1CC(O)C(=O)[O-] (stereo not drawn)
T/C (endpoint: mean survival time, dose: 50.0 mg/kg/injection, schedule: Q01DX001 (ip), vehicle: saline): 107 % of control | T/C (endpoint: mean survival time, dose: 100.0 mg/kg/injection, schedule: Q01DX001 (ip), vehicle: saline): 98 % of control | T/C (endpoint: mean survival time, dose: 200.0 mg/kg/injection, schedule: Q01DX001 (ip), vehicle: saline): 101 % of control

CC1(C)C(O)(C#N)C(C)(C)C1(O)C#N (stereo not drawn)
T/C (endpoint: mean survival time, dose: 6.25 mg/kg/injection, schedule: Q04DX003 (ip), vehicle: saline): 102 % of control | T/C (endpoint: mean survival time, dose: 12.5 mg/kg/injection, schedule: Q04DX003 (ip), vehicle: saline): 97 % of control

Nc1ccc2ccccc2c1-c1c(N)ccc2ccccc12
T/C (endpoint: mean survival time, dose: 18.7 mg/kg/injection, schedule: Q04DX002 (ip), vehicle: saline with Tween-80): 91 % of control | T/C (endpoint: mean survival time, dose: 37.5 mg/kg/injection, schedule: Q04DX002 (ip), vehicle: saline with Tween-80): 91 % of control | T/C (endpoint: mean survival time, dose: 75.0 mg/kg/injection, schedule: Q04DX002 (ip), vehicle: saline with Tween-80): 102 % of control

S=C1SCCN1c1ccccc1
T/C [1]: 96 % of control | T/C [10]: 103 % of control | T/C [2]: 96 % of control | T/C [11]: 101 % of control | T/C [3]: 95 % of control | T/C [12]: 100 % of control

CC(=O)SC(Cc1ccccc1)(Cc1ccccc1)SC(C)=O
T/C [10]: 97 % of control | T/C [11]: 95 % of control | T/C [12]: 100 % of control

C/C(=N\Nc1nc2ccccc2s1)c1ccc2c(c1)Sc1ccccc1O2
T/C (endpoint: mean survival time, dose: 37.5 mg/kg/injection, schedule: Q01DX009 (ip), vehicle: saline): 92 % of control | T/C (endpoint: mean survival time, dose: 75.0 mg/kg/injection, schedule: Q01DX009 (ip), vehicle: saline): 95 % of control | T/C (endpoint: mean survival time, dose: 150.0 mg/kg/injection, schedule: Q01DX009 (ip), vehicle: saline): 98 % of control

CC(=O)Nc1ncc(C)s1
T/C [1]: 102 % of control | T/C [10]: 97 % of control | T/C [2]: 104 % of control | T/C [11]: 101 % of control | T/C [3]: 95 % of control | T/C [12]: 101 % of control

CC(C)NC(=O)N(CCCCBr)N=O
T/C (endpoint: median survival time, dose: 12.0 mg/kg/injection, schedule: Q01DX009 (ip), vehicle: Klucel (hydroxypropylcellulose) (HPC)): 108 % of control | T/C (endpoint: median survival time, dose: 25.0 mg/kg/injection, schedule: Q01DX009 (ip), vehicle: Klucel (hydroxypropylcellulose) (HPC)): 116 % of control | T/C (endpoint: median survival time, dose: 50.0 mg/kg/injection, schedule: Q01DX009 (ip), vehicle: Klucel (hydroxypropylcellulose) (HPC)): 124 % of control | T/C (endpoint: median survival time, dose: 100.0 mg/kg/injection, schedule: Q01DX009 (ip), vehicle: Klucel (hydroxypropylcellulose) (HPC)): 160 % of control | T/C (endpoint: median survival time, dose: 200.0 mg/kg/injection, schedule: Q01DX009 (ip), vehicle: Klucel (hydroxypropylcellulose) (HPC)): 112 % of control
